Measured values taken from patent publication US20060079566A1, “PDK-1/Akt signaling inhibitors” (priority 2003, published 2006).
Read-outs that look alike come from different tables or passages of the source.

Tests used:
recombinant PDK-1 = target: T1, recombinant PDK-1 (Homo sapiens, UniProt O15530); experiment: PDK-1 kinase activity (Upstate kit, SGK-coupled, cell-free); type: biochemical
T1 construct: purchased Upstate (Lake Placid, N.Y.)
T1 sequence (O15530 1-556): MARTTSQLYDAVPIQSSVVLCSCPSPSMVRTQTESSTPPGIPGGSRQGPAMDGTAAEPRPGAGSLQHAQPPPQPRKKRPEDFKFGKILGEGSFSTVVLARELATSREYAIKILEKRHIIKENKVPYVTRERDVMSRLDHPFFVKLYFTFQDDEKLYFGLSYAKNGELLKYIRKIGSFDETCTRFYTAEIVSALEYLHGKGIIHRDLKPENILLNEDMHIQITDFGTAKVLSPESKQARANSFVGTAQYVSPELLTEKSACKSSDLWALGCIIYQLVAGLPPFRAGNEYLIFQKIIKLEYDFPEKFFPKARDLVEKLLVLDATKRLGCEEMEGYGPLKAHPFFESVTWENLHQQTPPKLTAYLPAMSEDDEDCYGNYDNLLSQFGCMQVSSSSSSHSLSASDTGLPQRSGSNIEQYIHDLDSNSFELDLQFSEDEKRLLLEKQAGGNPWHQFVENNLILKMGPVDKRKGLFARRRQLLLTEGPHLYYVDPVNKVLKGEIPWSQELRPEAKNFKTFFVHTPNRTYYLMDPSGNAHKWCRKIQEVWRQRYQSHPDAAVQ
Experimental: PDK-1 kinase activity This in vitro assay was performed using a PDK-1 kinase assay kit (Upstate, Lake Placid, N.Y.) according to the vendor's instructions. This cell-free assay is based on the ability of recombinant PDK-1, in the presence of DMSO vehicle or the test agent, to activate its downstream kinase serum- and glucocorticoid-regulated kinase (SGK.) which, in turn, phosphorylates the Akt/SGK-specific peptide substrate RPRAATF with [γ-^32]-ATP. […] The reported values represent the means of two independent determinations.

PC-3 cells = experiment: Cell viability analysis (MTT) in PC-3 cells; type: cell-based, human; conditions: Homo sapiens; inducing apoptotic death in PC-3 cells / PC-3 cell viability; read-out: IC50 PC-3
Experimental: Cell Culture PC-3 (p53−/−) human androgen-nonresponsive prostate cancer cells were purchased from the American […] (Manassas, Va.). Cells were cultured in RPMI 1640 medium (Gibco, Grand Island, N.Y.) supplemented with 10% fetal bovine serum (FBS; Gibco) at 37° C. in a humidified incubator containing 5% CO2.
Cell viability analysis The effect of 4-[5-(4-methylphenyl)-3-(trifluoromethyl)-1H-pyrazol-1-yl]benzenesulfonamide and its derivatives on PC-3 cell viability was assessed by using the MTT {[3-(4,5-dimethylthiazol-2-yl)-2,5-diphenyl-2H-tetrazolium bromide]} assay in six replicates. Cells were grown in 10% FBS-supplemented RPMI 1640 medium in 96-well, flat bottomed plates for 24 h, and were exposed to various concentrations of compounds 1-36 dissolved in DMSO (final concentration ≦0.1%) in 1% serum-containing RPMI 1640 medium for different time intervals. Controls received DMSO vehicle at a concentration equal to that in drug-treated cells. The medium was removed, replaced by 200 μl of 0.5 mg/ml of MTT in 10% FBS-containing RPMI-1640 medium, and cells were incubated in the CO2 incubator at 37° C. for 2 h. Supernatants were removed from the wells, and the reduced MTT dye was solubilized in 200 μL/well DMSO. Absorbance at 570 nm was determined on a plate reader.

[1] = inhibiting recombinant PDK-1 kinase activity, read-out: IC50 PDK-1

SMILES | IC50 (recombinant PDK-1) | IC50 (PC-3 cells) | IC50 (recombinant PDK-1; [1])
[N-]=[N+]=NCCc1ccc(-c2cc(C(F)(F)F)nn2-c2ccc(S(N)(=O)=O)cc2)cc1 [Compound 39, 4-[5-(4-(2-azidoethyl)phenyl)-3-(trifluoromethyl)-1H-pyrazol-1-yl]benzenesulfonamide] | 32 µM | 17 µM | –
Cc1ccc(-c2ccc(-c3cc(C(F)(F)F)nn3-c3ccc(S(N)(=O)=O)cc3)cc2)cc1 [Compound 50, 4-[5-(4′-methyl[1,1′-biphenyl]4-yl)-3-(trifluoromethyl)-1H-1-yl]benzenesulfonamide] | – | 8 µM | –
NC(Cc1ccc(-n2nc(C(F)(F)F)cc2-c2ccc3c(ccc4ccccc43)c2)cc1)=NO [Compound 68, 2-{4-[5-(2-Phenanthrenyl)-3-(trifluoromethyl)-1H-pyrazol-1-y]-phenyl}-N-hydroxy-acetamidine] | – | 8 µM | –
NS(=O)(=O)c1ccc(-n2nc(C(F)(F)F)cc2-c2ccc(-c3cccc(Cl)c3Cl)cc2)cc1 [Compound 48, 4-[5-(2′,3′-dichloro[1,1′-biphenyl]-4-yl)-3-(trifluoromethyl)-1H-pyrazol-1-yl]benzenesulfonamide] | – | 10 µM | 23 µM
NS(=O)(=O)c1ccc(-n2nc(C(F)(F)F)cc2-c2ccc(-c3cc(Cl)cc(Cl)c3)cc2)cc1 [Compound 47, 4-[5-(3′,5′-dichloro[1,1′-biphenyl]-4-yl)-3-(trifluoromethyl)-1H-pyrazol-1-yl]benzenesulfonamide] | 18 µM | 10 µM | –
CCCCc1ccc(-c2cc(C(F)(F)F)nn2-c2ccc(S(N)(=O)=O)cc2)cc1 [Compound 41, 4-[5-(4-butylphenyl)-3-(trifluoromethyl)-1H-pyrazol-1-yl]benzenesulfonamide] | 20 µM | 9 µM | –
NS(=O)(=O)c1ccc(-n2nc(C(F)(F)F)cc2-c2cc3ccccc3c3ccccc23)cc1 [Compound 60, 4-[5-(9-phenanthrenyl)-3-(trifluoromethyl)-1H-1-yl]benzenesulfonamide] | 42 µM | 23 µM | –
N#CCc1ccc(-n2nc(C(F)(F)F)cc2-c2ccc3c(ccc4ccccc43)c2)cc1 [Compound 67, {4-[5-(2-Phenanthrenyl)-3-(trifluoromethyl)-1H-pyrazol-1-yl]-phenyl}-acetonitrile] | – | 25 µM | 42 µM
N=C(NO)c1ccc(-n2nc(C(F)(F)F)cc2-c2ccc3c(ccc4ccccc43)c2)cc1 [Compound 63, 4-[5-(2-Phenanthrenyl)-3-(trifluoromethyl)-1H-pyrazol-1-yl]-N-hydroxybenzamidine] | 40 µM | 25 µM | –
NS(=O)(=O)c1ccc(-n2nc(C(F)(F)F)cc2-c2ccc(-c3ccc(CBr)cc3)cc2)cc1 [Compound 52, 4-[5-(4′-bromomethyl[1,1′-biphenyl]-4-yl)-3-(trifluoromethyl)-1H-1-yl]benzenesulfonamide] | – | 11 µM | 20 µM
NS(=O)(=O)c1ccc(-n2nc(C(F)(F)F)cc2-c2ccc3c(c2)Cc2ccccc2-3)cc1 [Compound 57, 4-[5-(9H-fluoren-2-yl)-3-(trifluoromethyl)-1H-1-yl]benzenesulfonamide] | – | – | 16 µM
NS(=O)(=O)c1ccc(-n2nc(C(F)(F)F)cc2-c2ccc(-c3ccccc3)cc2)cc1 [Compound 45] | – | 11 µM | 21 µM
NS(=O)(=O)c1ccc(-n2nc(C(F)(F)F)cc2-c2ccc(Cc3ccccc3)cc2)cc1 [Compound 56, 4-[5-(4-(phenylmethyl)phenyl)-3-(trifluoromethyl)-1H-1-yl]benzenesulfonamide] | – | 8 µM | –
O/N=C/c1ccc(-n2nc(C(F)(F)F)cc2-c2ccc3c(ccc4ccccc43)c2)cc1 [Compound 65, 4-5[-(2-Phenanthrenyl)-3-(trifluoromethyl)-1H-pyraxol-1-yl]-benzaldehyde oxime] | – | 14 µM | –
Cc1cc(C)cc(-c2ccc(-c3cc(C(F)(F)F)nn3-c3ccc(S(N)(=O)=O)cc3)cc2)c1 [Compound 53, 4-[5-(3′,5′-dimethyl[1,1;-biphenyl]-4-yl)-3-(trifluoromethyl)-1H-1-yl]benzenesulfonamide] | – | – | 17 µM
